Data taken from patent US20070202079A1, “Therapeutic compositions and methods useful in modulating protein tyrosine phosphatases” (priority 2006, published 2007).
Several values for one entry are separate records, joined by “and”; a condition that tells them apart may be missing. Identical values can stand only once. Entries after “also recorded” stand apart in the source; their conditions may differ.

Key:
NB4 cells [1] = assay: NB4 growth, cell cycle and Annexin V; type: cell-based, human; conditions: sodium stibogluconate 250 μg/ml or ATRA 1 μM, 3 days
Protocol: The NB4 cell line (Lanotte et al., Blood 77, 1080 (1991)) was a gift from Dr. Dan Lindner of the Cleveland Clinic Foundation. […] and U937 cell lines were purchased from American Type Culture Collection (Rockville, Md.). These human […] cell lines were maintained in RPMI 1640 medium supplemented with 10% fetal calf serum (FCS). For cell proliferation assays, cells were cultured at 37° C. in 10% FCS medium containing various amounts of sodium stibogluconate for 6 days. The cell numbers in the cultures were determined by an MTT assay as described previously in Mosmann, J. Immunol. Methods 65, 55 (1983).
The cell cycle was analyzed by flow cytometry after 3 days of culture of NB4 cells in the absence or presence of sodium stibogluconate (250 μg/ml) or ATRA (1 μM). Briefly, the cells were fixed in cold ethanol and incubated for 30 minutes at 4° C. in the dark with a solution of […] propidium iodide, 1 mg/ml RNase and 0.1% NP-40. Analysis was performed immediately after staining using the CELLFIT program (Becton Dickinson, Mountain View, Calif.).
Annexin V staining of exposed membrane phospholipid phosphatidylserine (PS) was done using the Annexin V assay kit (Pharmingen, San Diego, Calif.). Briefly, NB4 cells were cultured in the 10% FCS RPMI 1640 medium in the absence or presence of sodium stibogluconate (250 μg/ml) or ATRA (1 μM) for 3 days. Cells were then washed in PBS twice and stained in binding buffer (10 mM Hepes, pH 7.4; 140 mM NaCl; 2.5 mM CaCl2) containing Annexin V-FITC and propidium iodide for 15 min. The reaction was stopped by adding 10 volumes of binding buffer and analyzed by FACS (Becton Dickinson Facsvantage).

NB4 cells [2] = assay: NB4 differentiation (NBT reduction, CD11b); type: cell-based, human
Protocol: (§1) Differentiation of AML cell lines was assessed by their ability to produce superoxide as measured by reduction of NBT to formazan and by analysis of expression of CD11b surface marker by flow cytometry. For NBT reduction, each cell suspension was mixed with an equal volume of solution containing 1 mg/ml of NBT (Sigma) and 2.5 μg/ml of TPA for 30 minutes at 37° C. After incubation, cells containing the purple formazan deposits and cells devoid of NBT-reducing activity (white cells) in each sample were determined by counting 200 cells under microscope. Data is expressed as a percentage based on the following ratio: purple cells/purple+white cells. For analysis of cell surface antigens, cells were exposed to phycoerythrin (PE)-conjugated murine anti-human CD11b (DAKO Corp., Carpinteria, Calif.). Analysis of fluorescence was performed on a FACScan flow cytometer (Beckton Dickinson, Mountain View, Calif.).

HL-60 cells = assay: HL-60 differentiation (NBT reduction); type: cell-based, human; conditions: day 6
Protocol: as §1

U937 cells = assay: U937 differentiation (NBT reduction); type: cell-based, human; conditions: day 6
Protocol: as §1

PTP1B = target: T1, PTP1B (Homo sapiens, UniProt P18031); assay: in vitro PTPase assay, GST/PTP1B; type: biochemical; conditions: 1-1,000 μg/ml
T1 construct: purchased Upstate Biotechnology Inc. (Lake Placid, N.Y.)
Protocol: In vitro PTPase activities were measured using the commercial protein tyrosine phosphatase assay kit (Upstate Biotechnology, Inc. (“UBI”)) following established procedure known to one of skill in the art. This assay measures the in vitro dephosphorylation of a synthetic phosphotyrosine peptide of the sequence Arg-Arg-Leu-Ile-Glu-Asp-Ala-Gle-T- -yr-Ala-Ala-Arg-Gly, wherein the tyrosine is phosphorylated (SEQ ID NO: 3). Briefly, 0.01 μg of GST/PTPase fusion proteins was incubated in 50 μl of Tris buffer (10 mM Tris, pH 7.4) containing different concentrations of inhibitors or chemicals (0-1,000 μg/ml) at 22° C. for 10 minutes, followed by addition of 0.2 mM of the phosphotyrosine peptide and incubation at 22° C. for 18 hours. 100 μl of Malachite Green solution was added and incubated for 5 minutes, and the absorbance at 660 nm was measured after 5 minutes.
In vitro PTPase assays were used to determine the effects of levamisole (Sigma), pentamidine (American Pharmaceutical Partners, Inc.), and ketoconazole (Sigma) on recombinant PTPases, following established procedures (Pathak et al., J. Immunol. 167, 3391 (2001); Pathak et al., Leukemia 16, 2285 (2002), Yi et al., J. Immunol. 169, 5978 (2002)) using a synthetic phosphotyrosine peptide or DiFMUP as the substrate as detailed above in section I.A.2.

Baf3 cells = assay: Baf3 cell proliferation assay; type: cell-based, murine
Protocol: The murine hematopoietic cell line Baf3 was maintained in RPMI 1640 medium supplemented with 10% fetal calf serum (FCS) and murine IL-3 (20 units/ml) as described previously in Damen et al., J. Biol. Chem. 270, 23402 (1995). Human myeloid cell line TF-1 was maintained in RPMI 1640 supplemented with 10% FCS and 40 ng/ml of recombinant human GM-CSF as described previously in Thomassen et al., Clin. Immunol. 95, 85 (2000). For cell proliferation assays, cells were washed in 10% FCS medium twice, resuspended in 10% FCS medium, incubated at 37° C. for 16 hours, and then cultured at 37° C. in 10% FCS medium containing various amounts of cytokines, sodium stibogluconate, or potassium antimonyl tartrate for 3-6 days as indicated. The cell numbers in proliferation assays were determined by an MTT assay or by microscopic cell counting as indicated.

[3] = test system: Jak2/Stat5 tyrosine phosphorylation in Baf3 cells; assay: cellular protein tyrosine phosphorylation in Baf3 cells, Western blotting; type: cell-based, murine
Protocol: For induction of cellular protein phosphorylation by sodium stibogluconate or pervanadate, Baf3 cells were incubated in 0.1% FCS-RPMI 1640 medium at 37° C. for 16 hours. The cells were then washed twice in RPMI 1640 medium and incubated with sodium stibogluconate or pervanandate (0.1 mM) for various times prior to termination by lysing cells in cold lysis buffer (50 mM Tris, pH 7.4; 150 mM NaCl; 0.2 mM Na3VO4; 20 mm NaF; 1% Nonidet P-40; 2 mM PMSF; 20 μg/ml of Aprotinin and 1 mM of sodium molybdic acid). To determine the effect of sodium stibogluconate or potassium antimonyl tartrate on IL-3-induced Jak/Stat phosphorylation, Baf3 cells were deprived of the growth factor for 16 hours in 0.1% FCS RPMI 1640 medium and then incubated with or without sodium stibogluconate or potassium antimonyl tartrate for 10 minutes. IL-3 was next added to the cell suspension and incubated for various times. The Cells were then harvested and lysed in cold lysis buffer at 4° C. for 45 minutes. Total cell lysates (TCL) were separated in SDS-PAGE gels, blotted onto nitrocellulose membrane (Schleicher & Schuell), probed with specific antibodies and detected using an enhanced chemiluminescence kit (ECL, Amersham, Arlington Heights, Ill.).

SHP-1 = target: T2, SHP-1 (Mus musculus, UniProt P29351); assay: in vitro PTPase assay, GST/SHP-1; type: biochemical; conditions: 1-1,000 μg/ml
T2 construct: made in house
Protocol: In vitro PTPase activities were measured using the commercial protein tyrosine phosphatase assay kit (Upstate Biotechnology, Inc. (“UBI”)) following established procedure known to one of skill in the art. […] Briefly, 0.01 μg of GST/PTPase fusion proteins was incubated in 50 μl of Tris buffer (10 mM Tris, pH 7.4) containing different concentrations of inhibitors or chemicals (0-1,000 μg/ml) at 22° C. for 10 minutes, followed by addition of 0.2 mM of the phosphotyrosine peptide and incubation at 22° […] 100 μl of Malachite Green solution was added and incubated for 5 minutes, and the absorbance at 660 nm was measured after 5 minutes.
To assess the reversibility of inhibition of SHP-1 by PTPase inhibitors, GST/SHP-1 fusion protein bound on glutathione beads were pre-incubated in cold Tris buffer or Tris buffer containing the PTPase inhibitors at 4° C. for 30 minutes. The beads were then either subjected to in vitro PTPase assays or washed 3 times in Tris buffer then subjected to in vitro PTPase assays.
Briefly, individual PTPases (0.1 μg/reaction) in 50 μL of PTPase buffer (50 mM Tris, pH 7.4) were incubated at 22° C. for 10 minutes or as indicated in the absence or presence of inhibitory compounds. Substrates (0.2 mM phosphotyrosine peptide) were then added and allowed to react at 22° C. for 18 hrs. PTPase activity of individual reactions was measured by adding 100 μL of malachite green solution (UBI) and then quantifying the amounts of free phosphate cleaved by the PTPase from the peptide substrate by spectrometry (OD660 nm). […] Relative PTPase activities were calculated based on the formula: (PTPase activity in the presence of an inhibitory compound/PTPase activity in the absence of the compound)× 100%. To assess the reversibility of PTPase inhibition, GST fusion proteins of the PTPases bound on glutathione beads (Pharmacia) were pre-incubated with cold Tris buffer (50 mM Tris, pH 7.0) or Tris buffer containing the inhibitor at 4° C. for 30 minutes. The beads were then washed three times in cold Tris buffer or not washed prior to subjecting to in vitro PTPase assays.

[4] = test system: tumor-infiltrating and spleen immune cells (F4/80+, CD4+, CD8+); assay: immunohistochemistry of Renca tumors and spleen; type: in vivo, Balb/c mice; conditions: Renca tumors, end of treatment
Protocol: Major internal organs and Renca tumors harvested from mice were fixed in 10% formalin or snap frozen in liquid nitrogen. H & E-stained tissue sections of the fixed samples were prepared and evaluated by microscopy as described previously (Yi, T., M. K. Pathak, D. J. Lindner, M. E. Ketterer, C. Farver, and E. C. Borden. 2002. Anticancer activity of sodium stibogluconate in synergy with IFNs. J Immunol 169:5978). Preparation of frozen tissue sections and immunohistochemistry were performed following established procedures (Joliat, M. J., P. A. Lang, B. L. Lyons, L. Burzenski, M. A. Lynes, T. Yi, J. P. Sundberg, and L. D. Shultz. 2002. Absence of CD5 dramatically reduces progression of pulmonary inflammatory lesions in SHP-1 protein-tyrosine phosphatase-deficient ‘viable motheaten’ mice. J Autoimmun 18:105). The antibodies used for immunohistochemistry were anti-CD4 (rat mAb, clone GK1.5, BD Biosciences, Franklin Lakes, N.J.), anti-CD8 (rat mAb, clone 53-6.7.5, BD Biosciences, Franklin Lakes, N.J.), anti-F4/80 (rat mAb, clone A3-1, Serotec, Oxford, UK) and anti-Asialo GM1 (rabbit polyclonal, Cedarlane, Hornby, Canada). […] Tissue sections of 2 mice/group were evaluated. The number of immune cells was semi-quantified based on the following scheme: […], 0-1 positive cells/40×field; +, 2-5 positive cells/40×field; ++, 6-10 positive cells/40×field, etc.

Renca tumors = Renca tumors in Balb/c mice; type: in vivo; conditions: two weeks; SSG 12 mg/daily i.m., i.p.
Protocol: Balb/c and athymic nude Balb/c mice (10 weeks old, female, Taconic Farms, Germantown, N.Y.) were inoculated (s.c.) at the flanks with Renca cells (10^6 cells/site). Four days post-inoculation, the mice were subject to no treatment (Control) or treatment with IL-2 ([…]/daily for 5 days, i.p.), SSG (12 mg/daily, i.m. at hip regions) or the combination of the two agents for two weeks. […] The dose of SSG was similar to the effective daily dose of the drug for the treatment of murine leishmaniasis (Murray, H. W., J. D. Berman, and S. D. Wright. 1988. Immunochemotherapy for intracellular Leishmania donovani infection: gamma interferon plus pentavalent antimony. J Infect Dis 157:973). Tumor volume was measured during the study period and calculated using the formula for a prolate spheroid (V=4/3×a2b) (Lindner, D. J., E. C. Borden, and D. V. Kalvakolanu. 1997. Synergistic antitumor effects of a combination of interferons and retinoic acid on human tumor cells in vitro and in vivo. Clin Cancer Res 3:931). Student's t test was used for assessing the significance of tumor volume differences among differential treatment groups. Mouse viability (daily) and body weights (weekly) were also recorded during the study period. At the end of the study, Renca tumors and major internal organs (heart, kidney, liver, lung and spleen) were harvested for histology and immunohistochemistry analysis.

[5] = sodium stibogluconate 400 μg/ml, GM-CSF 25 ng/ml, ATRA

T1 sequence (P18031 whole entry, species assumed): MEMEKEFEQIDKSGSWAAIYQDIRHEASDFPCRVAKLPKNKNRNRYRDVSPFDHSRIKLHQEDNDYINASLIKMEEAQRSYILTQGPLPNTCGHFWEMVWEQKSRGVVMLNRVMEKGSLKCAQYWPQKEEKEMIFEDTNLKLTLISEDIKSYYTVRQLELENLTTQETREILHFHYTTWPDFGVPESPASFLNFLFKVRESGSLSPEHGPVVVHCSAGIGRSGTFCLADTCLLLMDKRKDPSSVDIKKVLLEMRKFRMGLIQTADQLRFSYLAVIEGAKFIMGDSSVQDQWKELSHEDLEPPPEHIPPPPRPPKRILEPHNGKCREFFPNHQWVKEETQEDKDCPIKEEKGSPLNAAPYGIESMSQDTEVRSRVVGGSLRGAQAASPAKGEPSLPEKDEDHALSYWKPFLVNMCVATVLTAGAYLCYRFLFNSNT
T2 sequence (P29351 whole entry): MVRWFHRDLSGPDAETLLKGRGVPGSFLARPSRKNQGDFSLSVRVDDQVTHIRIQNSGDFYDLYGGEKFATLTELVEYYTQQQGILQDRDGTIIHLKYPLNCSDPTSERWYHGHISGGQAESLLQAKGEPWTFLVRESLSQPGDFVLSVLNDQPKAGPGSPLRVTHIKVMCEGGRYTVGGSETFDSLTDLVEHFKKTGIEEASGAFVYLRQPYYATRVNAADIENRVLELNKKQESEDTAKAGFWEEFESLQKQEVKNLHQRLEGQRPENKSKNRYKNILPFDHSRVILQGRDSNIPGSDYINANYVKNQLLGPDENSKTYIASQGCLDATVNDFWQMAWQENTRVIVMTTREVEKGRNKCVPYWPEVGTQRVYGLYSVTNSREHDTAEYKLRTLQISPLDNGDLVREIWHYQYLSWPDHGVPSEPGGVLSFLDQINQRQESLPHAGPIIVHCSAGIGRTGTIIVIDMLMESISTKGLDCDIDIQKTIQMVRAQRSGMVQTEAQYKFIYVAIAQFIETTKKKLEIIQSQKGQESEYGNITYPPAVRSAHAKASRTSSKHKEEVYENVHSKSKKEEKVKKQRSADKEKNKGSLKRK

Compound: CC1=C(/C=C/C(C)=C/C=C/C(C)=C/C(=O)O)C(C)(C)CCC1 [ATRA, All-trans-retinoic acid]
- cell cycle of NB4 cells (NB4 cells [1]): arrested at GI phase
- NB4 differentiation by short exposure versus long term exposure (NB4 cells [2]; ATRA): modest
- NBT-positive (differentiated) HL-60 cells (HL-60 cells; [5]): 90%
- NBT-positive (differentiated) U937 cells (U937 cells; [5]): 72% and 73%

Compound: O.O.O.O=C([O-])[C@H]([O-])[C@@H]([O-])C(=O)[O-].O=C([O-])[C@H]([O-])[C@@H]([O-])C(=O)[O-].[K+].[K+].[Sb+3].[Sb+3] [potassium antimonyl tartrate]
- inhibition of PTP1B (PTP1B): no detectable inhibition
- IL-3-induced proliferation of Baf3 cells (Baf3 cells): failed to enhance
- toxicity against Baf3 cells (Baf3 cells): marked toxicity
- IL-3-induced Stat5 phosphorylation [3]: failed to enhance IL-3-induced Stat5 phosphorylation
- inhibition of SHP-1 (SHP-1): no detectable inhibition

Compound: GM-CSF: recombinant human granulocyte/macrophage colony stimulating factor
- effect on NB-4 cell differentiation (NB4 cells [2]; GM-CSF alone): no detectable effect
- maximal increase of NBT-positive HL-60 cells (HL-60 cells; GM-CSF alone 25 ng/ml): 8-10%
- maximal increase of NBT-positive U937 cells (U937 cells; GM-CSF alone 25 ng/ml): 8-10%

Compound: IL-2: recombinant IL-2 (Proleukin, Chiron)
- increase of tumor-infiltrating Mφ (F4/80+) [4]: comparable levels
- Renca tumor growth inhibition (Renca tumors): little effects; also recorded: failed to inhibit Renca tumor growth
